Literature values, collected in patent publication US7585869B2, “Substituted heterocylces for the treatment of abnormal cell growth” (Pfizer, Inc., priority 2003, dated 2009).

Experiments:
[1] = tested on: carcinoma which does not express the EGF receptor
[2] = tested on: transplanted human mammary carcinoma which expresses epidermal growth factor receptor tyrosine kinase (EGFR); conditions: athymic nude mice

O=CN/C=C/c1cc(O)ccc1O [erbstatin]
effect on growth of another carcinoma [1]: without effect on the growth | effect on growth of transplanted human mammary carcinoma [2]: selectively attenuates the growth
